Our source for the IC50 values is patent publication US20260374756A1, “HETEROCYCLIC COMPOUNDS AS INHIBITORS OF MONOACYLGLYCEROL LIPASE (MAGL)” (Hoffmann-La Roche Inc., priority 2022, published 2026).

As usually defined, the IC50 is the concentration that inhibits the measured activity by half. High values mean weaker potency, low ones greater potency.

The target in this assay is T1, hMAGL (Homo sapiens, UniProt Q99685).
T1 sequence (Q99685 1-303): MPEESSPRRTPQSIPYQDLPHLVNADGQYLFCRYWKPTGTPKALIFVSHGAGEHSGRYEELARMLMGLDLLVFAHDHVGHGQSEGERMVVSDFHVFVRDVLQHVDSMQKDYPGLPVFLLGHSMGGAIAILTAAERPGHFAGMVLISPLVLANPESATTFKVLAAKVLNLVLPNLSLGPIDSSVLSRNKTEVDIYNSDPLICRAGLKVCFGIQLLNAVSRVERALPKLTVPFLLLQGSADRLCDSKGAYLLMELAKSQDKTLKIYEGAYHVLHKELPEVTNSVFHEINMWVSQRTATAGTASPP
The experiment in a line: 2-AG assay: MAGL inhibition, hydrolysis of 2-arachidonoylglycerol to arachidonic acid followed by mass spectrometry. The class given is biochemical. In a few lines:
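Read-out is LC-MS/MS of arachidonic acid released from 2-arachidonoylglycerol (8 μM final), normalised to d8-arachidonic acid internal standard after acetonitrile quench. Enzyme […] and compound were pre-mixed 15 min, then reacted 30 min, both at RT, in Tris/EDTA buffer with 0.01% Tween-20 and 2.5% DMSO.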
The molecule `O=C(N1CC2(CC(n3cnc(C4CC4)n3)C2)C1)N1CC2(CN(Cc3cnn(CC(F)(F)F)n3)C2)C1` [Example 196, [6-(3-cyclopropyl-1,2,4-triazol-1-yl)-2-azaspiro[3.3]heptan-2-yl]-[6-[[2-(2,2,2-trifluoroethyl)triazol-4-yl]methyl]-2,6-diazaspiro[3.3]heptan-2-yl]methanone] returned an IC50 of 79 nM.

For the molecule `O=C(N1CC2(CC(n3cnc(C(F)(F)F)n3)C2)C1)N1CC2(CN(Cc3nnnn3CC(F)(F)F)C2)C1` [Example 197, [6-[[1-(2,2,2-trifluoroethyl)tetrazol-5-yl]methyl]-2,6-diazaspiro[3.3]heptan-2-yl]-[6-[3-(trifluoromethyl)-1,2,4-triazol-1-yl]-2-azaspiro[3.3]heptan-2-yl]methanone], it took 445 nM to reach half-maximal inhibition (IC50).

Molecule `O=C(N1CC2(CC(n3cnc(C4CC4)n3)C2)C1)N1CC2(CN(Cc3nnnn3CC(F)(F)F)C2)C1` [Example 198, [6-(3-cyclopropyl-1,2,4-triazol-1-yl)-2-azaspiro[3.3]heptan-2-yl]-[6-[[1-(2,2,2-trifluoroethyl)tetrazol-5-yl]methyl]-2,6-diazaspiro[3.3]heptan-2-yl]methanone] gave an IC50 of 71.5 nM.

The molecule `CC(C)(C)c1csc(CN2CC3(C2)CN(C(=O)N2CC4(CC(n5cnc(C6(O)CC6)n5)C4)C2)C3)n1` [Example 199, [6-[(4-tert-butylthiazol-2-yl)methyl]-2,6-diazaspiro[3.3]heptan-2-yl]-[6-[3-(1-hydroxycyclopropyl)-1,2,4-triazol-1-yl]-2-azaspiro[3.3]heptan-2-yl]methanone] registered an IC50 of 6.7 nM.

In the case of `CC(C)(C)c1csc(CN2CC3(C2)CN(C(=O)N2CC4(CC(n5cnc(C(F)(F)F)n5)C4)C2)C3)n1` [Example 200, [6-[(4-tert-butylthiazol-2-yl)methyl]-2,6-diazaspiro[3.3]heptan-2-yl]-[6-[3-(trifluoromethyl)-1,2,4-triazol-1-yl]-2-azaspiro[3.3]heptan-2-yl]methanone], half-maximal inhibition (IC50) was put at 1.16 nM.

`CC(C)(C)c1csc(CN2CC3(C2)CN(C(=O)N2CC4(CC(n5cnc(C6CC6)n5)C4)C2)C3)n1` [Example 201, [6-[(4-tert-butylthiazol-2-yl)methyl]-2,6-diazaspiro[3.3]heptan-2-yl]-[6-(3-cyclopropyl-1,2,4-triazol-1-yl)-2-azaspiro[3.3]heptan-2-yl]methanone] yielded an IC50 of 0.64 nM.

As for `O=C(N1CC2(CC(Cc3cnn(CC(F)(F)F)n3)C2)C1)N1CC2(CC(n3cnc(C4(O)CC4)n3)C2)C1` [Example 202, [6-[3-(1-hydroxycyclopropyl)-1,2,4-triazol-1-yl]-2-azaspiro[3.3]heptan-2-yl]-[6-[[2-(2,2,2-trifluoroethyl)triazol-4-yl]methyl]-2-azaspiro[3.3]heptan-2-yl]methanone], the IC50 was 12.5 nM.

On to `O=C(N1CC2(CC(Cc3ncn(CC(F)(F)F)n3)C2)C1)N1CC2(CC(n3cnc(C4(O)CC4)n3)C2)C1` [Example 203, [6-[3-(1-hydroxycyclopropyl)-1,2,4-triazol-1-yl]-2-azaspiro[3.3]heptan-2-yl]-[6-[[1-(2,2,2-trifluoroethyl)-1,2,4-triazol-3-yl]methyl]-2-azaspiro[3.3]heptan-2-yl]methanone], for which the half-inhibitory concentration (IC50) was 135 nM.

With `O=C(N1CC2(CC(Cc3nc(CC(F)(F)F)n[nH]3)C2)C1)N1CC2(CC(n3cnc(C(F)(F)F)n3)C2)C1` [Example 204, [6-[[3-(2,2,2-trifluoroethyl)-1H-1,2,4-triazol-5-yl]methyl]-2-azaspiro[3.3]heptan-2-yl]-[6-[3-(trifluoromethyl)-1,2,4-triazol-1-yl]-2-azaspiro[3.3]heptan-2-yl]methanone], half-maximal inhibition (IC50) required 25.8 nM.

In turn, `O=C(N1CC2(CC(Cc3nc(CC(F)(F)F)n[nH]3)C2)C1)N1CC2(CC(n3cnc(C4(O)CC4)n3)C2)C1` [Example 205, [6-[3-(1-hydroxycyclopropyl)-1,2,4-triazol-1-yl]-2-azaspiro[3.3]heptan-2-yl]-[6-[[3-(2,2,2-trifluoroethyl)-1H-1,2,4-triazol-5-yl]methyl]-2-azaspiro[3.3]heptan-2-yl]methanone] gave an IC50 of 72.9 nM.

For `O=C(N1CC2(CC(n3cnc(C(F)(F)F)n3)C2)C1)N1CC2(CN(Cc3nc(CC(F)(F)F)no3)C2)C1` [Example 206], the IC50 was determined as 149 nM.

Consider `O=C(N1CC2(CC(n3cnc(C4CC4)n3)C2)C1)N1CC2(CN(Cc3nc(CC(F)(F)F)no3)C2)C1` [Example 207, [6-(3-cyclopropyl-1,2,4-triazol-1-yl)-2-azaspiro[3.3]heptan-2-yl]-[6-[[3-(2,2,2-trifluoroethyl)-1,2,4-oxadiazol-5-yl]methyl]-2,6-diazaspiro[3.3]heptan-2-yl]methanone], for which half-maximal inhibition (IC50) required 25.6 nM.

Take `CC(C)(C)c1nnc(CN2CC3(C2)CN(C(=O)N2CC4(CC(n5cnc(C(F)(F)F)n5)C4)C2)C3)s1` [Example 208, [6-[(5-tert-butyl-1,3,4-thiadiazol-2-yl)methyl]-2,6-diazaspiro[3.3]heptan-2-yl]-[6-[3-(trifluoromethyl)-1,2,4-triazol-1-yl]-2-azaspiro[3.3]heptan-2-yl]methanone]: the IC50 came to 3.74 nM.

As for `CC(C)(C)c1nnc(CN2CC3(C2)CN(C(=O)N2CC4(CC(n5cnc(C6CC6)n5)C4)C2)C3)s1` [Example 209, [6-[(5-tert-butyl-1,3,4-thiadiazol-2-yl)methyl]-2,6-diazaspiro[3.3]heptan-2-yl]-[6-(3-cyclopropyl-1,2,4-triazol-1-yl)-2-azaspiro[3.3]heptan-2-yl]methanone], the IC50 turned out to be 5.28 nM.

`CC(C)(C)c1nnc(CN2CC3(C2)CN(C(=O)N2CC4(CC(n5cnc(C6(O)CC6)n5)C4)C2)C3)s1` [Example 210, [6-[(5-tert-butyl-1,3,4-thiadiazol-2-yl)methyl]-2,6-diazaspiro[3.3]heptan-2-yl]-[6-[3-(1-hydroxycyclopropyl)-1,2,4-triazol-1-yl]-2-azaspiro[3.3]heptan-2-yl]methanone] displayed an IC50 of 28 nM.

The molecule `O=C(N1CC2(CC(n3cnc(C(F)(F)F)n3)C2)C1)N1CC2(CN(Cc3cnc(C(F)(F)F)o3)C2)C1` [Example 211, [6-[[2-(trifluoromethyl)oxazol-5-yl]methyl]-2,6-diazaspiro[3.3]heptan-2-yl]-[6-[3-(trifluoromethyl)-1,2,4-triazol-1-yl]-2-azaspiro[3.3]heptan-2-yl]methanone] showed an IC50 of 52.9 nM.

In the case of `O=C(N1CC2(CC(n3cnc(C4CC4)n3)C2)C1)N1CC2(CN(Cc3cnc(C(F)(F)F)o3)C2)C1` [Example 212, [6-(3-cyclopropyl-1,2,4-triazol-1-yl)-2-azaspiro[3.3]heptan-2-yl]-[6-[[2-(trifluoromethyl)oxazol-5-yl]methyl]-2,6-diazaspiro[3.3]heptan-2-yl]methanone], the IC50 worked out at 13.1 nM.

Regarding `O=C(N1CC2(CC(n3cnc(C(F)(F)F)n3)C2)C1)N1CC2(CN(Cc3coc(C(F)(F)F)n3)C2)C1` [Example 213, [6-[[2-(trifluoromethyl)oxazol-4-yl]methyl]-2,6-diazaspiro[3.3]heptan-2-yl]-[6-[3-(trifluoromethyl)-1,2,4-triazol-1-yl]-2-azaspiro[3.3]heptan-2-yl]methanone], the IC50 is 168 nM.

As for `O=C(N1CC2(CC(n3cnc(C4CC4)n3)C2)C1)N1CC2(CN(Cc3coc(C(F)(F)F)n3)C2)C1` [Example 214, [6-(3-cyclopropyl-1,2,4-triazol-1-yl)-2-azaspiro[3.3]heptan-2-yl]-[6-[[2-(trifluoromethyl)oxazol-4-yl]methyl]-2,6-diazaspiro[3.3]heptan-2-yl]methanone], the IC50 came to 28.5 nM.

On to `O=C(N1CC2(CC(c3cc(C4CC4)n[nH]3)C2)C1)N1CC2(CN(Cc3nc(C(F)(F)F)co3)C2)C1` [Example 215, [6-(3-cyclopropyl-1H-pyrazol-5-yl)-2-azaspiro[3.3]heptan-2-yl]-[6-[[4-(trifluoromethyl)oxazol-2-yl]methyl]-2,6-diazaspiro[3.3]heptan-2-yl]methanone], for which the half-inhibitory concentration (IC50) was 20 nM.

For `O=C(N1CC2(CC(n3cnc(C(F)(F)F)n3)C2)C1)N1CC2(CN(Cc3nc(C(F)(F)F)co3)C2)C1` [Example 216], the IC50 was 102 nM.

With `O=C(N1CC2(CC(n3cnc(C4CC4)n3)C2)C1)N1CC2(CN(Cc3nc(C(F)(F)F)co3)C2)C1` [Example 217, [6-(3-cyclopropyl-1,2,4-triazol-1-yl)-2-azaspiro[3.3]heptan-2-yl]-[6-[[4-(trifluoromethyl)oxazol-2-yl]methyl]-2,6-diazaspiro[3.3]heptan-2-yl]methanone], the midpoint of inhibition, the IC50, lay at 13.7 nM.

The molecule `O=C(N1CC2(CC(n3cnc(C(F)(F)F)n3)C2)C1)N1CC2(CN(Cc3conc3C(F)(F)F)C2)C1` [Example 218, [6-[[3-(trifluoromethyl)isoxazol-4-yl]methyl]-2,6-diazaspiro[3.3]heptan-2-yl]-[6-[3-(trifluoromethyl)-1,2,4-triazol-1-yl]-2-azaspiro[3.3]heptan-2-yl]methanone] showed an IC50 of 31.9 nM.

`O=C(N1CC2(CC(n3cnc(C4CC4)n3)C2)C1)N1CC2(CN(Cc3conc3C(F)(F)F)C2)C1` [Example 219, [6-(3-cyclopropyl-1,2,4-triazol-1-yl)-2-azaspiro[3.3]heptan-2-yl]-[6-[[3-(trifluoromethyl)isoxazol-4-yl]methyl]-2,6-diazaspiro[3.3]heptan-2-yl]methanone] had an IC50 of 8.82 nM. Against the preceding molecule, the IC50 is about 3.6-fold lower.

Molecule `O=C(N1CC2(CC(n3cnc(C(F)(F)F)n3)C2)C1)N1CC2(CN(Cc3ncoc3C(F)(F)F)C2)C1` [Example 220] registered an IC50 of 178 nM.
